Test results as given in patent US20050058600A1, “3,3'-Diindolylmethane antiandrogenic compositions” (priority 2003, published 2005).

Assays:
LNCaP cells [1] = test: [3H]Thymidine incorporation (DNA synthesis) in LNCaP cells; format: cell-based, human; conditions: uninduced and androgen-induced (1 nM DHT) growth conditions
PC-3 cells = test: PC-3 cell growth (cell counting); format: cell-based, human; conditions: 96 h treatment; same concentrations (up to 50 μM)
Protocol: (§1) DIM was prepared from I3C as described (26-28) and recrystallized in toluene. The human prostate adenocarcinoma cell lines LNCaP-FGC and PC-3 were obtained from the American Type Culture Collection (Rockville, Md.). They were grown as adherent monolayers in 10% FBS-DMEM, supplemented with 4.0 g/L glucose and 3.7 g/L sodium bicarbonate in a humidified incubator at 37° C. and 5% CO2 and passaged at approximately 80% confluency. Cultures used in subsequent experiments were at less than 40 passages. Cells grown in stripped conditions were in 5% DCC-FBS-DMEM base supplemented with 4.0 g/L glucose, 3.7 g/L sodium bicarbonate, and 0.293 g/L L-Glutamine.
(§2) Cell Growth. Before the beginning of the treatments, cells were depleted of androgen for 4-7 d in medium composed of DMEM base without phenol-red and with 4.0 g/L glucose and 3.7 g/L sodium bicarbonate. During the depletion period, medium was changed every 48 h. Treatments were administered by addition of 1 μL of 1,000× solution in DMSO per mL of medium. Once the treatment period started, medium was changed daily to counter possible loss of readily metabolized compounds.
(§3) Cell Counting. Cells were harvested by trypsinization and resuspended in culture medium. Aliquots were diluted 50-fold in Isoton II (Coulter Corp., Miami, Fla.) and 200 μL duplicates were counted in a model Z1 Coulter particle counter and averaged.

AR = biological target: T1, AR (Homo sapiens, UniProt P10275, T878A); test: AR cytoplasmic/nuclear distribution by subcellular fractionation and Western blot in LNCaP cells; format: cell-based
T1 construct: 95 μL of either LNCaP cell extracts or recombinant AR protein; endogenous in cells; host or cells: LNCaP
T1 sequence (P10275 1-920 T878A): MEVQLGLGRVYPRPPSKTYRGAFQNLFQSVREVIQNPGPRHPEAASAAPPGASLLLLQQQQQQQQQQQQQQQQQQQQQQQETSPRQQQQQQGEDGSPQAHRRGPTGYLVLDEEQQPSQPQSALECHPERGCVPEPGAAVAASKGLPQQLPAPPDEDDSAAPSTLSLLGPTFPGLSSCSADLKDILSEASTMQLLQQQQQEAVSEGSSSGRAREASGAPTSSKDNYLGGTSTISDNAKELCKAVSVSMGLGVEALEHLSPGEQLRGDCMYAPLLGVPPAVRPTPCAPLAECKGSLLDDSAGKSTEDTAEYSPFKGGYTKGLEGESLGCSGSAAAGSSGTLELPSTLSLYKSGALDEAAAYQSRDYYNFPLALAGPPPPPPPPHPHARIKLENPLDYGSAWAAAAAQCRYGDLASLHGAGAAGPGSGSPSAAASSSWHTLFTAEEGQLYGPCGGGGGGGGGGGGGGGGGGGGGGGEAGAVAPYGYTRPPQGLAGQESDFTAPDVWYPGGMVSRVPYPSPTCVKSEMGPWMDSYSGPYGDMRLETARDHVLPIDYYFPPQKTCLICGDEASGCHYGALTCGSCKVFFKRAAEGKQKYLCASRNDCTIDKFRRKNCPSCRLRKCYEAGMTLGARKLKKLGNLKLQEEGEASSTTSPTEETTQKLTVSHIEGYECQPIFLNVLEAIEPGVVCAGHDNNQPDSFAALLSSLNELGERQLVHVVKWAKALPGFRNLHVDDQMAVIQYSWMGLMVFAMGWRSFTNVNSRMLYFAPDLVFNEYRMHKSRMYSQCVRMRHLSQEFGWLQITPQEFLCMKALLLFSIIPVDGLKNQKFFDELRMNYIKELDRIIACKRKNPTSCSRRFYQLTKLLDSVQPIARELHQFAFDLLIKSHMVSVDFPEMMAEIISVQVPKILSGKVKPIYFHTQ
Protocol: Subcellular Fractionation. Three near confluent (80-90%) cultures of LNCaP cells in 100 mm Petri dishes were used for each treatment. Treatments were added as 1 μL of 1,000× solution in DMSO per ml of medium for the indicated time. After incubation with treatments at 37° C., cytosolic and nuclear proteins were prepared as described (32,33) with modifications. Briefly, cells were lysed in hypotonic buffer (10 mM Hepes, pH 7.5) and harvested in MDH buffer (3 mM MgCl2, 1 mM DTT, 25 mM Hepes, pH 7.5). After homogenization, supernatant was saved for cytosolic proteins and nuclear proteins were extracted from the pellets using MDHK buffer (3 mM MgCl2, 1 mM DTT, 0.1 M KCl, 25 mM Hepes, pH 7.5) followed by HDK buffer (25 mM Hepes, pH 7.5, 1 mM DTT, 0.4 M KCl). Cytosolic and nuclear extracts were subsequently analyzed by Western blot analysis.
Western Blot Analysis. Following the indicated treatment, Western immunoblot analyses of androgen receptor from LNCaP cells were performed as described previously (20). […] The amount of protein was quantified by Gel Densitometer (Bio-Rad) and normalized with P-actin when used as an internal control.

mutant AR of LNCaP cells = biological target: T2, mutant AR of LNCaP cells (Homo sapiens, UniProt P10275, T878A); test: Competitive [3H]DHT binding assay, LNCaP cell extracts; conditions: micromolar concentration range
T2 construct: 95 μL of either LNCaP cell extracts or recombinant AR protein; endogenous in cells; host or cells: LNCaP
T2 sequence (P10275 1-920 T878A): T1 sequence (P10275 1-920 T878A)
Protocol: Hormone Binding Assay. LNCaP cells were grown in 5% DCC-FBS-DMEM medium supplemented with 4.0 g/L glucose and 3.7 g/L sodium bicarbonate and harvested in HBS containing 1.5 mM EDTA by scraping with a rubber policeman. The cells were placed on ice, collected by centrifugation, washed with ice-cold TKEG buffer (20 mM Tris-HCl pH 7.4, 50 mM KCl, 1 mM EDTA, 0.1 mM PMSF, and 10% glycerol) and resuspended in 250 μL/plate homogenization buffer (50 mM Tris-HCl pH 7.4, 1.5 mM EDTA, 10 mM sodium molybdate, 2.5 mM β-mercaptoethanol, 50 mM KCl, 0.1 mM PMSF, and 10% glycerol). Cells were homogenized using a Polytron apparatus at medium speed for 1 min on ice. The homogenates were centrifuged at 50,000 rpm in 4° C. for 60 min. The supernatant solution was divided into 1.0 mL aliquots, quickly frozen in a dry-ice/ethanol bath and stored at −80° C. Protein concentration was determined by the Bradford assay using bovine serum albumin as the standard. […] Competitive ligands were added as 1.0 μL of 100× solution in DMSO. After mixing, 95 μL of either LNCaP cell extracts or recombinant AR protein (PanVera, Madison, Wis.) was added and the solutions were vortexed and incubated at room temperature for 2-3 h. […]

LNCaP cells [2] = test: LNCaP cell proliferation (cell counting); format: cell-based; conditions: Homo sapiens, 96 h treatment, read-out: maximal inhibition of LNCaP cell proliferation
Protocol: as §1, §2, §3

[3] = system: dimethylbenzanthracene (DMBA)-induced mammary tumors; conditions: rats; cited from earlier work
PSA protein = test: Western blot of intracellular and secreted PSA in LNCaP cells; format: cell-based, human; conditions: DHT co-treatment
Protocol: Analysis of Intracellular and Secreted PSA. LNCaP cells growing on 100 mm plates were treated for 24 h. Cells were lysed as previously described (20) for intracellular PSA analysis. For secreted proteins, spent medium was collected and concentrated 18-fold using Millipore Centriprep YM-10 following manufacturer's protocol (Bedford, Mass.). Protease inhibitors were added and the proteins were immunoprecipitated with 3 μg/mL monoclonal free PSA antibody (Biodesign International) for 2 h and co-immunoprecipitated overnight at 4° C. with Protein A/G agarose (Santa Cruz Biotechnology, Santa Cruz, Calif.) on a rotator. The samples were then subjected to Western blot analysis as described previously (20) using a monoclonal PSA (sc-7316) primary antibody and a goat anti-mouse-IgG-AP secondary antibody.

[4] = system: wild-type recombinant human AR; test: Competitive [3H]DHT binding assay, recombinant AR protein; conditions: micromolar concentration range

Question: Which “inhibition of DNA synthesis” value (LNCaP cells [1]) does the source give for c1ccc2c(Cc3c[nH]c4ccccc34)c[nH]c2c1 [DIM, 3,3′-diindolylmethane] here?
Answer: up to 90%

Question: And the “effects on the growth of PC-3 cells” value (PC-3 cells)?
Answer: no observable effects

Question: And the “effect on nuclear translocation of the AR, compound alone” value (AR; absence of DHT)?
Answer: had no effect

Question: What about the “block of DHT-induced AR translocation” value (AR; co-treatment with 1 nM DHT) of the same compound?
Answer: up to 75%

Question: And the “competition with labeled DHT for binding to the AR” value (mutant AR of LNCaP cells)?
Answer: competes with labeled DHT for binding to the AR

Question: And the inhibition at 50 µM (LNCaP cells [2])?
Answer: 70%

Question: And the “incidence of DMBA-induced mammary tumors” value [3]?
Answer: reduced the incidence

Question: And the “levels of intracellular and secreted PSA protein” value (PSA protein)?
Answer: reduced levels of intracellular and secreted PSA protein to background concentrations

Question: What about the “competition with labeled DHT for binding to the AR” value [4] of the same compound?
Answer: competes with labeled DHT for binding to the AR
